Assays:
[1] = test system: L. reuteri; conditions: Rattanaprasert et al. 2014; cited from earlier work
[2] = test system: B. bifidum; assay: free sugar consumption by intestinal microbiota; type: cell-based; parameters: key: *: predicted, but not observed; ND: Not Determined; conditions: predicted, but not observed
Source text: (§1) A number of bacterial species are provided in Table 2, since the inventors have discovered preferred carbon source(s) for certain bacteria. Certain embodiments of the invention described herein would include one or more of any of the species found in Table 2.

[3] = test system: B. breve; assay: free sugar consumption by intestinal microbiota; type: cell-based; parameters: key: *: predicted, but not observed; ND: Not Determined; conditions: predicted, but not observed
Source text: as §1

[4] = test system: B. infantis; assay: free sugar consumption by intestinal microbiota; type: cell-based; parameters: key: *: predicted, but not observed; ND: Not Determined; conditions: predicted, but not observed
Source text: as §1

[5] = test system: B. longum; assay: free sugar consumption by intestinal microbiota; type: cell-based; parameters: key: *: predicted, but not observed; ND: Not Determined; conditions: predicted, but not observed
Source text: as §1

Compound	growth of Lactobacillus reuteri on the sugar [1]	preferences for free sugar consumption [2]	preferences for free sugar consumption [3]	preferences for free sugar consumption [4]	preferences for free sugar consumption [5]
C[C@H](O)[C@H](O)[C@@H](O)[C@@H](O)C=O [Rhamnose]	utilize rhamnose as a terminal electron acceptor to improve its growth	–	–	–	–
O=C[C@@H](O)[C@H](O)[C@H](O)CO [Arabinose]	known to grow on arabinose	–	–	–	–
C[C@H](O)[C@@H](O)[C@@H](O)[C@H](O)C=O [Fucose]	–	*	*	*	*

Reference: patent US20200245667A1, “OLIGOSACCHARIDE COMPOSITIONS AND THEIR USE DURING TRANSITIONAL PHASES OF THE MAMMALIAN GUT MICROBIOME” (EVOLVE BIOSYSTEMS, INC., priority 2017, published 2020)
